The NIST ThermoML archive (doi:10.1016/j.jct.2006.08.002)
“And” between values parts separate entries of the source, which are not always exact repeats. Equal entries are not always repeated.

Test: xn = mol fraction of the nth substance listed
Settings: Fluid (supercritical or subcritical phases), Constant-volume piezometry

CCO [ethanol] + O
Settings	mass density
524.15 K, 7270 kPa, x1 = 0.8	383.33 kg/m3
525.15 K, 7460 kPa, x1 = 0.8	383.31 kg/m3
526.15 K, 7550 kPa, x1 = 0.8	367.95 kg/m3
528.15 K, 7710 kPa, x1 = 0.8	312.86 kg/m3
528.15 K, 7870 kPa, x1 = 0.8	367.91 kg/m3
528.15 K, 8040 kPa, x1 = 0.8	383.24 kg/m3
528.15 K, 8410 kPa, x1 = 0.8	406.33 kg/m3
531.15 K, 8420 kPa, x1 = 0.8	367.86 kg/m3
533.15 K, 4750 kPa, x1 = 0.8	53.24 kg/m3
533.15 K, 7070 kPa, x1 = 0.5	84.52 kg/m3
533.15 K, 7100 kPa, x1 = 0.8	115.14 kg/m3
533.15 K, 8140 kPa, x1 = 0.8	188.77 kg/m3
533.15 K, 8270 kPa, x1 = 0.8	244.11 kg/m3 and 260.96 kg/m3
533.15 K, 8350 kPa, x1 = 0.8	284.34 kg/m3
533.15 K, 8420 kPa, x1 = 0.8	312.77 kg/m3
533.15 K, 8440 kPa, x1 = 0.8	307.44 kg/m3
533.15 K, 8750 kPa, x1 = 0.8	367.82 kg/m3
533.15 K, 8990 kPa, x1 = 0.8	383.14 kg/m3
533.15 K, 9460 kPa, x1 = 0.8	406.22 kg/m3
533.15 K, 10480 kPa, x1 = 0.8	440.21 kg/m3
533.15 K, 10860 kPa, x1 = 0.8	446.58 kg/m3
533.15 K, 17410 kPa, x1 = 0.8	516.16 kg/m3
538.15 K, 9170 kPa, x1 = 0.8	312.69 kg/m3
538.15 K, 27310 kPa, x1 = 0.8	553.51 kg/m3
543.15 K, 4920 kPa, x1 = 0.8	53.21 kg/m3
543.15 K, 7570 kPa, x1 = 0.5	84.48 kg/m3
543.15 K, 7610 kPa, x1 = 0.8	115.08 kg/m3
543.15 K, 9020 kPa, x1 = 0.8	188.68 kg/m3
543.15 K, 9530 kPa, x1 = 0.8	260.83 kg/m3
543.15 K, 9680 kPa, x1 = 0.8	284.19 kg/m3
543.15 K, 9920 kPa, x1 = 0.8	312.61 kg/m3
543.15 K, 10630 kPa, x1 = 0.8	367.62 kg/m3
543.15 K, 10940 kPa, x1 = 0.8	382.93 kg/m3
543.15 K, 11670 kPa, x1 = 0.8	406 kg/m3
548.15 K, 7850 kPa, x1 = 0.8	115.06 kg/m3
548.15 K, 9420 kPa, x1 = 0.8	188.63 kg/m3
548.15 K, 9680 kPa, x1 = 0.5	294.01 kg/m3
548.15 K, 9720 kPa, x1 = 0.5	327.56 kg/m3
548.15 K, 9980 kPa, x1 = 0.8	243.92 kg/m3
548.15 K, 10390 kPa, x1 = 0.5	421.66 kg/m3
548.15 K, 10630 kPa, x1 = 0.8	307.19 kg/m3
548.15 K, 10680 kPa, x1 = 0.8	312.53 kg/m3
548.15 K, 11790 kPa, x1 = 0.5	464.07 kg/m3
548.15 K, 11950 kPa, x1 = 0.8	382.83 kg/m3
548.15 K, 14420 kPa, x1 = 0.8	439.83 kg/m3
548.15 K, 14800 kPa, x1 = 0.8	446.2 kg/m3
548.15 K, 17240 kPa, x1 = 0.5	522.28 kg/m3
548.15 K, 26570 kPa, x1 = 0.5	568.89 kg/m3
548.15 K, 30490 kPa, x1 = 0.5	581.74 kg/m3
553.15 K, 5080 kPa, x1 = 0.8	53.19 kg/m3
553.15 K, 6130 kPa, x1 = 0.5	55.97 kg/m3
553.15 K, 7190 kPa, x1 = 0.5	69.28 kg/m3
553.15 K, 7970 kPa, x1 = 0.5	84.44 kg/m3
553.15 K, 9210 kPa, x1 = 0.5	117.47 kg/m3
553.15 K, 10090 kPa, x1 = 0.5	171.33 kg/m3
553.15 K, 10330 kPa, x1 = 0.5	234.67 kg/m3
553.15 K, 10520 kPa, x1 = 0.5	327.48 kg/m3
553.15 K, 10600 kPa, x1 = 0.5	293.93 kg/m3
553.15 K, 10890 kPa, x1 = 0.5	385.77 kg/m3
553.15 K, 11430 kPa, x1 = 0.8	312.45 kg/m3
553.15 K, 11790 kPa, x1 = 0.5	424.77 kg/m3
553.15 K, 11850 kPa, x1 = 0.5	419.86 kg/m3
553.15 K, 12540 kPa, x1 = 0.8	367.42 kg/m3
553.15 K, 13460 kPa, x1 = 0.5	463.93 kg/m3
553.15 K, 19450 kPa, x1 = 0.5	522.11 kg/m3
553.15 K, 25160 kPa, x1 = 0.8	515.53 kg/m3
553.15 K, 25720 kPa, x1 = 0.5	555.9 kg/m3
553.15 K, 47100 kPa, x1 = 0.5	614.98 kg/m3
558.15 K, 8310 kPa, x1 = 0.8	115 kg/m3
558.15 K, 10340 kPa, x1 = 0.8	188.54 kg/m3
558.15 K, 11380 kPa, x1 = 0.8	260.63 kg/m3
558.15 K, 11700 kPa, x1 = 0.8	283.97 kg/m3
558.15 K, 13990 kPa, x1 = 0.8	382.62 kg/m3
558.15 K, 15170 kPa, x1 = 0.8	405.66 kg/m3
563.15 K, 6360 kPa, x1 = 0.5	55.95 kg/m3
563.15 K, 7510 kPa, x1 = 0.5	69.25 kg/m3
563.15 K, 8400 kPa, x1 = 0.5	84.4 kg/m3
563.15 K, 8830 kPa, x1 = 0.2	67.68 kg/m3
563.15 K, 9900 kPa, x1 = 0.5	117.41 kg/m3
563.15 K, 11080 kPa, x1 = 0.5	171.24 kg/m3
563.15 K, 12360 kPa, x1 = 0.5	327.3 kg/m3
563.15 K, 12940 kPa, x1 = 0.8	312.28 kg/m3
563.15 K, 12970 kPa, x1 = 0.8	312.28 kg/m3
563.15 K, 13290 kPa, x1 = 0.5	385.56 kg/m3
563.15 K, 14460 kPa, x1 = 0.8	367.22 kg/m3
563.15 K, 16510 kPa, x1 = 0.5	463.66 kg/m3
563.15 K, 23620 kPa, x1 = 0.5	521.79 kg/m3
568.15 K, 9040 kPa, x1 = 0.2	67.66 kg/m3
573.15 K, 5420 kPa, x1 = 0.8	53.14 kg/m3
573.15 K, 6590 kPa, x1 = 0.5	55.92 kg/m3
573.15 K, 7820 kPa, x1 = 0.5	69.21 kg/m3
573.15 K, 8780 kPa, x1 = 0.5	84.36 kg/m3
573.15 K, 8990 kPa, x1 = 0.8	114.92 kg/m3
573.15 K, 10460 kPa, x1 = 0.5	117.35 kg/m3
573.15 K, 11580 kPa, x1 = 0.8	188.4 kg/m3
573.15 K, 12050 kPa, x1 = 0.5	171.15 kg/m3
573.15 K, 12840 kPa, x1 = 0.8	243.61 kg/m3
573.15 K, 13010 kPa, x1 = 0.5	234.43 kg/m3
573.15 K, 13190 kPa, x1 = 0.8	260.43 kg/m3
573.15 K, 13610 kPa, x1 = 0.5	293.62 kg/m3
573.15 K, 13720 kPa, x1 = 0.8	283.75 kg/m3
573.15 K, 14410 kPa, x1 = 0.8	306.79 kg/m3
573.15 K, 14490 kPa, x1 = 0.8	312.12 kg/m3
573.15 K, 15660 kPa, x1 = 0.5	385.34 kg/m3
573.15 K, 16440 kPa, x1 = 0.8	367.02 kg/m3
573.15 K, 16820 kPa, x1 = 0.5	419.39 kg/m3
573.15 K, 17060 kPa, x1 = 0.5	421.07 kg/m3
573.15 K, 17150 kPa, x1 = 0.8	382.31 kg/m3
573.15 K, 17210 kPa, x1 = 0.5	424.29 kg/m3
573.15 K, 18650 kPa, x1 = 0.8	405.32 kg/m3
573.15 K, 20120 kPa, x1 = 0.5	463.38 kg/m3
573.15 K, 21340 kPa, x1 = 0.8	439.21 kg/m3
573.15 K, 22500 kPa, x1 = 0.8	451.39 kg/m3
573.15 K, 28040 kPa, x1 = 0.5	521.47 kg/m3
573.15 K, 39960 kPa, x1 = 0.5	567.95 kg/m3
573.15 K, 44900 kPa, x1 = 0.5	580.76 kg/m3
577.15 K, 45760 kPa, x1 = 0.8	552.13 kg/m3
578.15 K, 23390 kPa, x1 = 0.8	445.43 kg/m3
578.15 K, 35170 kPa, x1 = 0.8	514.74 kg/m3
578.15 K, 38000 kPa, x1 = 0.5	555.01 kg/m3
593.15 K, 50760 kPa, x1 = 0.5	567.2 kg/m3
598.15 K, 5820 kPa, x1 = 0.8	53.08 kg/m3
598.15 K, 7080 kPa, x1 = 0.5	55.85 kg/m3
598.15 K, 8560 kPa, x1 = 0.5	69.13 kg/m3
598.15 K, 9720 kPa, x1 = 0.5	84.26 kg/m3
598.15 K, 10060 kPa, x1 = 0.8	114.78 kg/m3
598.15 K, 11840 kPa, x1 = 0.5	117.21 kg/m3
598.15 K, 12030 kPa, x1 = 0.2	90.05 kg/m3
598.15 K, 13600 kPa, x1 = 0.8	188.16 kg/m3
598.15 K, 14290 kPa, x1 = 0.2	138.08 kg/m3
598.15 K, 15290 kPa, x1 = 0.2	221.72 kg/m3
598.15 K, 15460 kPa, x1 = 0.2	286.74 kg/m3
